Test results reported in patent US20240423968A1, “USE OF PROTEASOME-TARGETING SMALL MOLECULES TO MITIGATE MUSCLE WASTING” (The Board of Regents of the University of Texas System, priority 2023, published 2024).
Where two headings read alike, the source gives them in different places. Values belong to the molecule of their own block, whether it stands above or below them.

What was measured:
C2C12 cells = test: Principal component analysis of AFM-assessed mechanical parameters of model myotubes; assay type: cell-based, mouse; conditions: C2C12 cells treated with TNFα plus compound
Method: (§1) Cultured cells growing on dishes were scanned with a Catalyst Atomic Force Microscope (Bruker) mounted on a Nikon Ti inverted epifluorescent microscope. Nanomechanical parameters of cells were collected in the Quantitative Nanomechanical Mapping (PF-QNM) mode of the AFM. Before AFM imaging, optical images were recorded for each cell. SCANASYST-AIR probes were used for imaging after their spring constant was determined with the thermal tuning. Cell boundaries were located with peak force error (PFE) AFM images and further verified with height images. Nanomechanical parameters of cells were captured in three separate PF-QNM channels: elasticity (or stiffness—the Young's modulus), deformation and adhesion. Analysis of these parameters was performed with NanoScope Analysis software v. 1.7 (Osmulski, P. A., et al., Cancer Res. 2021 Aug. 1; 81(15):4110-4123). Force curves were fit to the Sneddon model. Mode values of the mechanical parameters for individual cells were calculated from the corresponding distribution histograms. The Texture Aspect Ratio, as a measure of the spatial isotropy or directionality of the surface texture was calculated from the square height images of cells after applying the first order flatten function (Roughness Analysis in NanoScope Analysis v. 1.7).
Mouse C2C12 myoblasts were purchased in American Tissue Type Collection (ATCC CRL-1772) were cultured in Dulbecco's modified Eagle's medium (DMEM) supplementec with 15% fetal bovine serum (FBS) and penicillin/streptomycin, at 37° C. and 5% CO2. […]
Principal component analysis (PCA) was utilized to evaluate the AFM-assessed mechanical parameters of model myotubes in C2C12 cells treated with TNFα alone or with compounds B1 or C3. […]

[1] = system: C2C12-derived mouse myocytes; test: Cellular AFM: cell surface isotropy (cytoskeleton organization) of model myotubes; assay type: cell-based; conditions: compound accompanies TNFα; AFM roughness analysis
Method: as §1, with “Nanomechanical parameters of cells were captured in three separate PF-QNM channels: elasticity (or stiffness—the Young's modulus), deformation and adhesion. Analysis of these parameters was performed with NanoScope Analysis software v. 1.7 (Osmulski, P. A., et al., Cancer Res. 2021 Aug. 1; 81(15):4110-4123). Force curves were fit to the Sneddon model.” left out, “1.7). […]” for “1.7).”
Cellular atomic force microscopy (AFM) of C2C12-derived mouse myocytes was utilized to show the effect of TNFα on the cytosketon organization of the myotube surface patterns (FIG. 5). The regularity of the pattern can be assessed by roughness analysis of the AFM images.
The surface isotropy parameter can quantify the regularity of the patterns observed in AFM. […]

C2C12 myotubes = test: Myotube morphology (diameters) in the TNFα-induced muscle atrophy cell culture model; assay type: cell-based, mouse; conditions: for myotube morphology when applied alongside TNFα: TNFα 15 ng/ml for 72 hours, compound added together with TNFα; for effect on cell morphology in the control: compound without TNFα
Method: Mouse C2C12 myoblasts were purchased in American Tissue Type Collection (ATCC CRL-1772) were cultured in Dulbecco's modified Eagle's medium (DMEM) supplementec with 15% fetal bovine serum (FBS) and penicillin/streptomycin, at 37° C. and 5% CO2. After reaching confluence the myoblasts were differentiated into myotubes by culturing for 72 hours under low-serum conditions (2% horse serum, 0.5 microgram/ml insulin. After that, model muscle atrophy was induced by the treatment with tumor necrosis factor alpha (TNFα) at 15 ng/ml for 72 hours. Vehicle (dimethylsulfoxide; DMSO) or desired compounds (B1, C3, bortezomib) were added to the culture medium together with TNFα.
Myotubes were visualized as described in Eric J. Stevenson, et al., Journal of Applied Physiology 2005 98:4, 1396-1406. All myotubes analyzed in randomly selected microscope fields, with three diameters per tube and at least 50 myotubes analyzed per experimental point.
The diameters of C2C12 myotubes can be utilized to look for indications of degeneration.

26S holoenzyme = test: 26S activity in lysates (in-gel activity assay, Suc-LLVY-MCA overlay); assay type: cell-based, mouse; conditions: model-wasted cells
Excerpt: (§2) The mechanism of the anti-wasting action of proteasome modulators can be probed by measuring the 26S activity in lysates and measuring the levels of autophagy-related protein 7 (ATG7) in lysates. Excessive activity of 26S holoenzyme bears prime responsibility for degradation of muscle proteins during wasting. […] Autophagy, alongside proteasome pathway, aggravates degeneration.

[2] = target: 20S human housekeeping proteasome (Homo sapiens, UniProt P28074); test: 20S ChT-L proteolytic activity assay (Suc-LLVY-AMC hydrolysis, Rpt5 peptide-activated); assay type: biochemical; conditions: for activity against 20S ChT-L proteolysis, in words: SAR comparison
Method: Compounds were evaluated for proteasome activity using the 20S human housekeeping proteasome. It was activated with the Rpt5 derived 10-residue peptide that contains the C-terminal HbYX (hydrophobic-Tyr-any AA) motif activating the proteasome in trans and to some extend mimic the activation by the 19S regulatory particle (Osmulski and Gaczynska (2013) Molecular pharmacology 84: 104-113; Smith et al. (2006) J. Struct. Biol. 156: 72-83; Smith et al. (2007) Mol. Cell 27: 731-744). Proteolytic activity was monitored over time using a fluorogenic peptide substrate specific for the chymotrypsin-like active center (ChT-L, Suc-LLVY-AMC) in the presence of a concentration range of the inhibitors. In this activity assay, hydrolysis of the substrate results in release of the highly fluorescent aminomethylcoumarin fluorophore. The linear portions of the fluorescence intensity plots were used to calculate the rates of Suc-LLVY-AMC hydrolysis and an IC50 (concentration of drug at which 50% of the maximum rate inhibition occurs) is determined.

[3] = system: autophagy-related protein 7 (ATG7); test: Levels of autophagy-related protein 7 (ATG7) in lysates (Western blotting); assay type: cell-based, mouse; conditions: model-wasted cells
Excerpt: as §2

[4] = system: myofibers in quadriceps of tumor-bearing mice; test: In vivo mouse model of cancer cachexia (nude mice xenografted with PC3 cells), quadriceps myofiber diameters, H&E
Method: The mouse model of cancer-related muscle wasting consistent of nude mice xenografted with human cultured androgen-resistant prostate cancer PC3 cells. The mice were treated intra-tumorally (IT) with the vehicle (dimethylsulfoxide; DMSO); 8 control mice) or with 10 mg/kg of compound 3. Three injections per week (Mondays, Wednesdays, and Fridays) were carried for three weeks. After that, mice were sacrificed and quadriceps muscle tissues were preserved by standard formalin fixing. Muscle tissue slices were stained with hematoxilin and eosin (H&E standard staining) to visualize muscle fibers and enable myofiber diameter measurements under a standard microscope. Myofibers for 4 control (vehicle-treated) and 4 compound 3-treated mice were measured.
The quadriceps muscle in tumor-bearing mice treated with C3 […] a weeks for three weeks was compared to control using H&E-stained tissues slices (FIG. 10). Frequency analysis of diameters of myofibers (400 myofibers each) from tumor-bearing mice (4 each of the control-vehicle and c3 (10 mg/kg)) was performed (FIG. 11).

[5] = Table 2, pipecolic acid derivatives, ChT-L activity of 20S, read-out: IC50
[6] = read-out: IC50, ChT-L activity of the 20S proteasome
[7] = Table 3, proline derivatives, ChT-L activity of 20S, read-out: IC50

Compound: COc1cc(CCCOC(=O)C2CCCCN2C(=O)OCc2ccccc2)cc(OC)c1OC (racemic) [Compound 2]
- IC50 [2, 6]: 11.5 µM

Compound: O=C(OCCCc1ccccc1)[C@@H]1CCCCN1C(=O)OCc1ccccc1 [Compound 8]
- activity against 20S ChT-L proteolysis, in words [2]: significantly reduced its activity
- IC50 [2, 5]: 2.6 µM

Compound: CCCOC(=O)[C@@H]1CCCCN1C(=O)OCc1ccccc1 [Compound 9]
- IC50 [2, 5]: > 50 µM

Compound: O=C(O)[C@@H]1CCCCN1C(=O)OCc1ccccc1 [Compound 10]
- IC50 [2, 5]: > 50 µM

Compound: COc1cc(CCCOC(=O)[C@@H]2CCCN(C(=O)OCc3ccccc3)C2)cc(OC)c1OC [Compound 11]
- IC50 [2, 5]: 14.7 µM

Compound: COc1cc(CCCOC(=O)[C@@H]2CCCN2C(=O)OCc2ccccc2)cc(OC)c1OC [Compound 12]
- activity against 20S ChT-L proteolysis, in words [2]: modest activity
- IC50 [2, 7]: 23.8 µM

Compound: O=C(OCCCc1ccccc1)[C@@H]1CCCN1C(=O)OCc1ccccc1 [Compound 13]
- IC50 [2, 6]: 6.6 µM

Compound: CC(C)C[C@H](NC(=O)[C@H](Cc1ccccc1)NC(=O)c1cnccn1)B(O)O [bortezomib, reference compound]
- AFM-assessed mechanical parameters (PCA phenotype) (C2C12 cells): does not protect the phenotypes
- myotube morphology when applied alongside TNFα (C2C12 myotubes): failed to protect the myotubes
- effect on cell morphology in the control (C2C12 myotubes): harmed the cells
- autophagy (ATG7 levels in lysates) [3]: upregulates autophagy

Continued, in another order:

- 26S activity in lysates (26S holoenzyme): mitigates the activity
- IC50 [2, 5]: 5.8 µM
Compound: COc1cc(CCCOC(=O)C2CCCCN2C(=O)C(=O)C2CCCCC2)cc(OC)c1OC (racemic) [B1]
- AFM-assessed mechanical parameters (PCA phenotype) (C2C12 cells): preserve the control-like phenotypes
- cell surface patterning (surface isotropy) [1]: remains control-like
- myotube morphology when applied alongside TNFα (C2C12 myotubes): restored the morphogy to control-like status
- effect on cell morphology in the control (C2C12 myotubes): no effect on the cell morphology
- autophagy (ATG7 levels in lysates) [3]: does not affect or mitigates autophagy

- 26S activity in lysates (26S holoenzyme): mitigates the activity
- IC50 [2, 5]: 2 µM
- IC50 [2, 6]: 3.1 µM
Compound: COc1cc(CCCOC(=O)[C@@H]2CCCCN2C(=O)OCc2ccccc2)cc(OC)c1OC [Compound 3]
- AFM-assessed mechanical parameters (PCA phenotype) (C2C12 cells): preserve the control-like phenotypes
- cell surface patterning (surface isotropy) [1]: remains control-like
- myotube morphology when applied alongside TNFα (C2C12 myotubes): restored the morphogy to control-like status
- effect on cell morphology in the control (C2C12 myotubes): no effect on the cell morphology
- diameters of myofibers (frequency analysis) ([4]; 400 myofibers each, 4 mice each, 10 mg/kg vs control-vehicle, difference significant at p<1.47×10^−21): Higher values of myofiber diameters
- myofiber morphology in quadriceps ([4]; tumor-bearing mice, 10 mg/kg intra-tumorally, three weeks, vs vehicle): improved myofiber morphology
- autophagy (ATG7 levels in lysates) [3]: does not affect or mitigates autophagy

- IC50 [2, 6]: 15.2 µM
Compound: COc1cc(CCCOC(=O)[C@@H]2CCCCN2C(=O)OCC(C)C)cc(OC)c1OC [Compound 4]

- activity against 20S ChT-L proteolysis, in words [2]: completely abrogated activity
- IC50 [2, 5]: > 50 µM
Compound: COC(=O)N1CCCC[C@H]1C(=O)OCCCc1cc(OC)c(OC)c(OC)c1 [Compound 5]

- IC50 [2, 5]: 20.1 µM
Compound: COc1cc(CCOC(=O)[C@@H]2CCCCN2C(=O)OCc2ccccc2)cc(OC)c1OC [Compound 6]

- activity against 20S ChT-L proteolysis, in words [2]: significantly reduced its activity
- IC50 [2, 5]: 19.8 µM
Compound: COc1cc(COC(=O)[C@@H]2CCCCN2C(=O)OCc2ccccc2)cc(OC)c1OC [Compound 7]

- activity against 20S ChT-L proteolysis, in words [2]: decreased activity
- IC50 [2, 7]: 19.2 µM
Compound: O=C(OCCc1ccccc1)[C@@H]1CCCN1C(=O)OCc1ccccc1 [Compound 14]

- activity against 20S ChT-L proteolysis, in words [2]: decreased activity
- IC50 [2, 7]: 33.5 µM
Compound: O=C(OCc1ccccc1)[C@@H]1CCCN1C(=O)OCc1ccccc1 [Compound 15]
